This data set deals with T1, integrin α4 (Homo sapiens, UniProt P13612).
T1 sequence (P13612 34-1032): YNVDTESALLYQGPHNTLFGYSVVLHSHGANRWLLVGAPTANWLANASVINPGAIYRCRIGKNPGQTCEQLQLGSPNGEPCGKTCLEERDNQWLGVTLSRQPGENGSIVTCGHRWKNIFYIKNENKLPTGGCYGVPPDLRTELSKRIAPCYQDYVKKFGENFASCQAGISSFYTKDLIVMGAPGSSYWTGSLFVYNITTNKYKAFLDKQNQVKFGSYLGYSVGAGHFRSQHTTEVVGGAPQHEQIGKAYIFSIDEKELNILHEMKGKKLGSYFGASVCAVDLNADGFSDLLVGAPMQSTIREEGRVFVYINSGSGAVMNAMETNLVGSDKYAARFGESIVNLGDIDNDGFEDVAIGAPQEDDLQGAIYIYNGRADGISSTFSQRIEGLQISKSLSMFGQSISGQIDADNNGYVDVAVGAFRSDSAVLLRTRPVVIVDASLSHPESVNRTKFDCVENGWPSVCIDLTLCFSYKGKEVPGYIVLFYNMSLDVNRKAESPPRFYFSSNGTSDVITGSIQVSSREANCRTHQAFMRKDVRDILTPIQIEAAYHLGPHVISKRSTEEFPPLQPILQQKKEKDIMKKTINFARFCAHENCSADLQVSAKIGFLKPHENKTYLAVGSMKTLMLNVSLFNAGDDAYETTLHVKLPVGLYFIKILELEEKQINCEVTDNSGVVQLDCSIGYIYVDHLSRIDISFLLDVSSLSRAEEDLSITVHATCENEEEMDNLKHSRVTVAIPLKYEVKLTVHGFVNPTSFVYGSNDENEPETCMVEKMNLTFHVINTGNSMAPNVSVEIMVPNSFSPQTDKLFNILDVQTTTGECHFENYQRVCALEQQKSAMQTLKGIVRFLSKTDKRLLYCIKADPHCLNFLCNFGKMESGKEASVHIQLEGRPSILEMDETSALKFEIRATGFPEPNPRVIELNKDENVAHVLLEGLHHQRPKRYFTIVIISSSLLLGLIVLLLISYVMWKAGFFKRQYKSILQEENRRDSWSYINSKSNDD
Description: IC50/IC90 concentrations and required tissue levels quoted in FIG. 6 legend.

The structures appear in SMILES notation. Values joined by “and” are separate entries in the source; they are usually repeats but may differ in a detail not shown here. Equal values may be shown once. Read-outs that look alike come from different tables or passages of the source.

Consider `Cc1ccccc1OCC(=O)N[C@@H](CC(C)C)C(=O)N[C@@H](Cc1ccc(OC(=O)N2CCC(C(N)=O)CC2)cc1)C(=O)O` [GW559090, (2S)-3-[4-({[4-(Aminocarbonyl)-1-piperidinyl]carbonyl}oxy)phenyl]-2-[((2S)-4-methyl-2-{[2-(2-methylphenoxy)acetyl]amino}pentanoyl)amino]propanoic acid], for which the IC50 (FIG. 6 legend, read-out: 1050 concentration (converted)) was ~8 nM and ~8.38 nM. The IC90 is, setting by setting: (FIG. 6 legend, read-out: IC90 concentration) ~80 nM and ~0.048 µg/mL; (if protein binding is 98%, read-out: Approximate tissue level required to achieve the IC90 concentration) ~4 µM and ~2.4 µg/mL. The “Approximate tissue level required to achieve the 1050 concentration” value (if protein binding is 98%) is ~400 nM and ~240 ng/mL.
